The values below come from patent publication US20240366498A1, “Reducing the Risk of Infection from Bacteria Present in Skin Pores During Surgery” (The Board of Trustees of the Leland Stanford Junior …, priority 2021, published 2024).

Holding throughout (type): cell-based
For assay [1], the system named is Cutibacterium acnes strain 3 (BWH-003 25505801). The experiment in a line: Growth of C. acnes strain 3 in RCM with antibacterial agent, optical density. As for the experimental part: (§1) Seven different strains of Cutibacterium acnes were grown in test tubes in Reinforced Clostridial Medium (RCM). Each strain was divided into different wells of mulita-well plates (96-well and 384-well plates were used). 80 μl was used and a 1:200 dilution from saturated cultures. Either an antibacterial agent or vehicle (as a control) was added to each well. Absorbance was measured and quantified as optical density (OD) as a proxy for cell biomass. The OD was recorded at regular intervals over several hours. […] The OD at 48 hours was estimated by calculating the average OD between 47 and 49 hours, and this value was used for further analyses. OD600 is the OD at 600 nm. The OD is listed in arbitrary units determined by the spectrophotometers. Such OD data was collected for different concentrations of each antibacterial agent. […] The horizontal axis has units of μM (micromoles per liter).

The subject of the next assay is Cutibacterium acnes. As to the kind of experiment: Effect of antibacterial agents on C. acnes, seven strains taken together. The note with it: across the tested strains. As for the experimental part:
Seven different strains of Cutibacterium acnes were grown in test tubes in Reinforced Clostridial Medium (RCM). Each strain was divided into different wells of mulita-well plates (96-well and 384-well plates were used). 80 μl was used and a 1:200 dilution from saturated cultures. Either an antibacterial agent or vehicle (as a control) was added to each well. Absorbance was measured and quantified as optical density (OD) as a proxy for cell biomass. The OD was recorded at regular intervals over several hours. […] The OD at 48 hours was estimated by calculating the average OD between 47 and 49 hours, and this value was used for further analyses. OD600 is the OD at 600 nm. The OD is listed in arbitrary units determined by the spectrophotometers.
Such OD data was collected for different concentrations of each antibacterial agent. […] The horizontal axis has units of μM (micromoles per liter). Next, IC50 values were calculated by assessing when the OD value was about 0.5.

For assay [2], the system named is Cutibacterium acnes strain 12 (HM-539 (HL086PA1)). As to the kind of experiment: Growth of C. acnes strain 12 in RCM with antibacterial agent, optical density. As for the experimental part:
as §1

The subject of assay [3] is Cutibacterium acnes strain 13 (HM-552 (HL110PA1)). The experiment in a line: Growth of C. acnes strain 13 in RCM with antibacterial agent, optical density. As for the experimental part: as §1
Assay [4] relates to Cutibacterium acnes strain 2 (BWH-002 25541381). The experiment in a line: Growth of C. acnes strain 2 in RCM with antibacterial agent, optical density. As for the experimental part: as §1
Assay [5] has as its system Cutibacterium acnes strain 10 (HM-523 (HL053PA2)). As to the kind of experiment: Growth of C. acnes strain 10 in RCM with antibacterial agent, optical density. As for the experimental part: as §1
In assay [6] the test system is Cutibacterium acnes strain 16 (KPL1847). The experiment in a line: Growth of C. acnes strain 16 in RCM with antibacterial agent, optical density. As for the experimental part: as §1
In assay [7] the test system is Cutibacterium acnes strain 15 (KPL2008). As to the kind of experiment: Growth of C. acnes strain 15 in RCM with antibacterial agent, optical density. As for the experimental part: as §1
The mark [8] stands for this setting: strain 3, OD at 48 hours, RCM, read-out: IC50.
The mark [9] stands for this setting: strain 12, OD at 48 hours, RCM, read-out: IC50.
Where [10] appears, read: strain 13, OD at 48 hours, RCM, read-out: IC50.
Where [11] appears, read: strain 2, OD at 48 hours, RCM, read-out: IC50.
[12] abbreviates: strain 10, OD at 48 hours, RCM, read-out: IC50.
The mark [13] stands for this setting: strain 16, OD at 48 hours, RCM, read-out: IC50.
The mark [14] stands for this setting: strain 15, OD at 48 hours, RCM, read-out: IC50.

Like-named read-outs stand apart in the source and are kept apart here. Where only a bound is given, the exact number is not on record here.

As usually defined, the IC50 is the concentration that inhibits the measured activity by half.

In the case of `CO/N=C(\C(=O)N[C@@H]1C(=O)N2C(C(=O)O)=C(CSc3nc(=O)c(=O)[nH]n3C)CS[C@H]12)c1csc(N)n1` [Ceftriaxone], the IC50 worked out at 0.0098 µM in assay [1] (setting [8]); 0.0098 µM in assay [2] (setting [9]); 0.0098 µM in assay [3] (setting [10]); 0.0097 µM in assay [4] (setting [11]); 0.0098 µM in assay [5] (setting [12]). Moreover, in the assay on Cutibacterium acnes, the “IC50 values, in words” value was “relatively low IC50 values”.

As to `O=C(OOC(=O)c1ccccc1)c1ccccc1` [Benzoyl Peroxide], the IC50 is above 2560 µM in assay [1] (setting [8]); 2560 µM in assay [2] (setting [9]); 640 µM in assay [6] (setting [13]); 640 µM in assay [3] (setting [10]); 2560 µM in assay [4] (setting [11]); 1280 µM in assay [5] (setting [12]). For the same compound, in assay [7] (setting [14]), the half-inhibitory concentration (IC50) worked out at 640 µM.

In the case of `OO` [Hydrogen Peroxide], the IC50 was 2560 µM in assay [1] (setting [8]); 1280 µM in assay [2] (setting [9]); 2560 µM in assay [6] (setting [13]); 640 µM in assay [3] (setting [10]); 1280 µM in assay [4] (setting [11]); 2560 µM in assay [5] (setting [12]). The IC50 in assay [7] (setting [14]) worked out at 2560 µM.

For `CO/N=C(\C(=O)N[C@@H]1C(=O)N2C(C(=O)[O-])=C(C[N+]3(C)CCCC3)CS[C@H]12)c1csc(N)n1` [Cefepime], the IC50 in assay [1] (setting [8]) was 2.5 µM; in assay [2] (setting [9]) it was 0.16 µM; in assay [6] (setting [13]), 2.5 µM; in assay [3] (setting [10]), 0.31 µM; in assay [4] (setting [11]) it was 0.31 µM; in assay [5] (setting [12]), 0.31 µM. Besides, the IC50 in assay [7] (setting [14]) was 2.5 µM.

`C[C@@H](O)[C@H]1C(=O)N2C(C(=O)O)=C(S[C@@H]3CN[C@H](C(=O)Nc4cccc(C(=O)O)c4)C3)[C@H](C)[C@H]12` [Ertapenem]: the IC50 is 0.16 µM in assay [1] (setting [8]); 0.0098 µM in assay [2] (setting [9]); 0.31 µM in assay [6] (setting [13]); 0.039 µM in assay [3] (setting [10]); 0.039 µM in assay [4] (setting [11]); 0.078 µM in assay [5] (setting [12]). Also, the IC50 in assay [7] (setting [14]) was found to be 0.16 µM.

As for `Cc1ncc([N+](=O)[O-])n1CCO` [Metronidazole], the IC50 is above 5120 µM in assay [1] (setting [8]); 5120 µM in assay [2] (setting [9]); above 5120 µM in assay [6] (setting [13]); 5120 µM in assay [3] (setting [10]); above 5120 µM in assay [4] (setting [11]); above 5120 µM in assay [5] (setting [12]). The IC50 in assay [7] (setting [14]) turned out to be 5120 µM.

Turning to `CN[C@H](CC(C)C)C(=O)N[C@H]1C(=O)N[C@@H](CC(N)=O)C(=O)N[C@H]2C(=O)N[C@H]3C(=O)N[C@H](C(=O)N[C@H](C(=O)O)c4cc(O)cc(O)c4-c4cc3ccc4O)[C@H](O)c3ccc(c(Cl)c3)Oc3cc2cc(c3O[C@@H]2O[C@H](CO)[C@@H](O)[C@H](O)[C@H]2O[C@H]2C[C@](C)(N)[C@H](O)[C@H](C)O2)Oc2ccc(cc2Cl)[C@H]1O` [Vancomycin], the IC50 in assay [1] (48 h) was determined as 0.15 µM; in assay [2] (48 h), 0.31 µM; in assay [6] (48 h), 0.31 µM; in assay [3] (48 h), 0.16 µM; in assay [4] (48 h), 0.16 µM; in assay [5] (48 h), 0.16 µM. The same compound yielded an IC50 in assay [7] (48 h) of 0.31 µM.

In the case of `CC1(C)S[C@@H]2[C@H](NC(=O)[C@H](N)c3ccc(O)cc3)C(=O)N2[C@H]1C(=O)O` [Amoxicillin], the IC50 in assay [1] (setting [8]) stood at 0.0098 µM; in assay [2] (setting [9]), 0.039 µM; in assay [6] (setting [13]) it was 0.31 µM; in assay [3] (setting [10]), 0.019 µM; in assay [4] (setting [11]), 0.078 µM; in assay [5] (setting [12]), 0.078 µM. Further, the IC50 in assay [7] (setting [14]) was 0.16 µM. Further, the “IC50 values, in words” value with Cutibacterium acnes is “relatively low IC50 values”.

Turning to `NC[C@H]1O[C@H](O[C@H]2[C@H](O)[C@@H](O[C@H]3O[C@H](CO)[C@@H](O)[C@H](N)[C@H]3O)[C@H](N)C[C@@H]2N)[C@H](O)[C@@H](O)[C@@H]1O` [Kanamycin], the IC50 in assay [1] (setting [8]) worked out at 80 µM; in assay [2] (setting [9]) it was 160 µM; in assay [6] (setting [13]) it was 160 µM; in assay [3] (setting [10]), 320 µM; in assay [4] (setting [11]), 640 µM; in assay [5] (setting [12]) it was 320 µM. Also, the IC50 in assay [7] (setting [14]) stood at 640 µM.
